Data published in the NIST ThermoML archive (doi:10.1016/j.fluid.2017.07.002).
Several values for one entry are separate records, joined by “and”; a condition that tells them apart may be missing. Identical values can stand only once. Numbers after ± are expanded uncertainties. Values belong to the compound of their own block, whether it stands above or below them.

Settings: Liquid, Closed cell (Static) method

Structure (SMILES): FC(F)(F)F [tetrafluoromethane]
vapor or sublimation pressure (153.23 K): 171.92 ± 5.7 kPa
vapor or sublimation pressure (193.43 K): 1205.3 ± 6.8 kPa

Structure (SMILES): FC(F)(F)C(F)(F)C(F)(F)F [octafluoropropane]
vapor or sublimation pressure (223.21 K): 53.1 ± 1.9 kPa
vapor or sublimation pressure (272.76 K): 408.18 ± 2 kPa

Structure (SMILES): C=C(F)C(F)(F)F [2,3,3,3-tetrafluoro-1-propene]
vapor or sublimation pressure (193.26 K): 5.46 ± 0.38 kPa
vapor or sublimation pressure (193.3 K): 5.69 ± 0.38 kPa
vapor or sublimation pressure (223 K): 37.74 ± 0.42 kPa
vapor or sublimation pressure (223.08 K): 37.41 ± 1.1 kPa
vapor or sublimation pressure (223.11 K): 37.48 ± 1.1 kPa
vapor or sublimation pressure (233.02 K): 61.64 ± 0.61 kPa
vapor or sublimation pressure (233.04 K): 62.24 ± 1.3 kPa
vapor or sublimation pressure (272.69 K): 310.8 ± 1.5 kPa
vapor or sublimation pressure (272.75 K): 310.85 ± 1.5 kPa and 310.76 ± 1.5 kPa
vapor or sublimation pressure (272.78 K): 311.18 ± 1.5 kPa
vapor or sublimation pressure (272.8 K): 311.8 ± 1.5 kPa
vapor or sublimation pressure (272.81 K): 311.46 ± 1.5 kPa

Other lines, results leading:

vapor or sublimation pressure (173.86 K): 34.35 ± 0.58 kPa
vapor or sublimation pressure (177.11 K): 41.46 ± 0.77 kPa
vapor or sublimation pressure (183.19 K): 62.33 ± 0.9 kPa
vapor or sublimation pressure (183.2 K): 62.29 ± 0.92 kPa
vapor or sublimation pressure (193.19 K): 113.55 ± 3.3 kPa
vapor or sublimation pressure (228.83 K): 600.35 ± 3.2 kPa
vapor or sublimation pressure (233.16 K): 707.03 ± 6.9 kPa
vapor or sublimation pressure (273.25 K): 2502.8 ± 13 kPa
Structure (SMILES): FC(F)F [trifluoromethane]

vapor or sublimation pressure (173.63 K): 53.57 ± 0.85 kPa
vapor or sublimation pressure (177.24 K): 66.42 ± 1.1 kPa
vapor or sublimation pressure (183.28 K): 94.31 ± 1.1 kPa
vapor or sublimation pressure (228.82 K): 673.93 ± 3.5 kPa
Structure (SMILES): CC [ethane]
